Data taken from patent US20100130600A1, “LIPOPROTEIN LIPASE AND ITS EFFECT ON STATIN TREATMENTS” (CEDARS-SINAI MEDICAL CENTER, priority 2007, published 2010).

Experiment: Post-CABG Trial: lipid response to lovastatin therapy (baseline vs post-treatment lipid levels)
Assay type: in vivo, human
Experimental: As described herein, the inventors asked whether LPL haplotypes influence response to lipid-lowering therapy. They studied 830 subjects from the Post-Coronary Artery Bypass Graft trial, in which subjects with at least one patent saphenous vein graft were treated moderately or aggressively with lovastatin. A lipid profile was obtained at baseline and 4-5 years after treatment. 12 SNPs spanning the 3′ end of LPL were genotyped using the 5′-exonuclease (Taqman MBG) reaction. Haplotypes were constructed using the accelerated expectation maximization algorithm implemented in the program Haploview. Association with lipid response was evaluated using analysis of covariance (ANCOVA). Age, body mass index, race, current smoking status, time between CABG and study enrollment, and lovastatin treatment group were taken as covariates in the association analyses. […] Conversely, Haplotypes 6, 7, and 8 were each associated with increased HDL-C response to therapy compared to respective non-carriers. Haplotype 2 was associated with a smaller increment in triglycerides (Haplotype 2 carriers: +2.6% versus non-carriers: +11.8% change in triglycerides, P=0.02). These effects of LPL haplotypes on HDL-C and triglyceride response were independent of whether subjects were in the intensive or moderate treatment group. […] The most common haplotype, haplotype 1, was protective against graft worsening or occlusion. LPL may influence atherosclerosis risk through pleiotropic effects on each aspect of the metabolic syndrome.
This genetic association study is ancillary to the Post-Coronary Artery Bypass Graft Trial (Post-CABG Trial) (Taylor K D, Genet Med 2004, 6: 481-486; The Post Coronary Artery Bypass Graft Trial Investigators, N Engl J Med 1997, 336: 153-162). A total of 1351 subjects from seven clinical centers throughout North America were included in the clinical trial and all were eligible as participants in this genetic ancillary study. Inclusion and exclusion criteria have been previously described (The Post Coronary Artery Bypass Graft Trial Investigators, N Engl J Med 1997, 336: 153-162). Subjects were randomly assigned for treatment to lower LDL-cholesterol levels with lovastatin, aggressively (target LDL 1.55-2.20 mmol/L (60-85 mg/dL)), cholestryramine added to lovastatin if necessary to reach target) or moderately (target LDL 3.36-3.62 mmol/L (130-140 mg/dL)). For the genetic study, DNA was isolated from 903 subjects following standard protocols. Follow-up complete angiographic data, lipid values, and DNA were available from 891 of these individuals. Subjects in this genetic study were collected in the latter years of the larger Post-CABG trial.
All demographic, family history, medical history, and clinical data were collected as part of the Post-CABG Trial.14 The progression of atherosclerosis was quantitatively determined by comparison of an initial angiogram at enrollment with a follow-up angiogram repeated an average of 4.3 years later. Baseline and follow-up angiography were obtained with catheterization techniques that permitted computer-assisted quantitative measurement. An initially patent graft was defined as having progression of atherosclerosis if there was a decrease of 0.6 mm or more in lumen diameter at the site of greatest change at follow-up. Subjects with “progression of atherosclerosis” were defined as those subjects with one or more grafts showing progression. Graft occlusion was also assessed. Baseline and post-treatment lipid levels (total cholesterol, TC; LDL-cholesterol, LDL-C; HDL-cholesterol, HDL-C; and triglycerides, TG) were obtained.
The primary phenotypes analyzed for association with LPL haplotypes were: a) the progression of atherosclerosis, and b) lipid response to lovastatin therapy. Secondary analyses included association of the LPL haplotypes with baseline lipid and systolic and diastolic blood pressure (SBP and DBP) measurements. […]

[1] = 891 post-CABG subjects, mean ± SD (range)
[2] = aggressive treatment group (target LDL 60-85 mg/dL, cholestyramine added if necessary)
[3] = moderate treatment group (target LDL 130-140 mg/dL)

CC[C@H](C)C(=O)O[C@H]1C[C@@H](C)C=C2C=C[C@H](C)[C@H](CC[C@@H]3C[C@@H](O)CC(=O)O3)[C@H]21 [lovastatin]
HDL-C response [1]: 13.8 ± 24.4 (−61.9-153.1) %
LDL-C response [1]: −25.7 ± 20.6 (−78.8-45.9) %
Total cholesterol response [1]: −15.3 ± 16.3 (−58.4-43.5) %
Triglyceride response [1]: 7.5 ± 53.0 (−81.6-330.2) %
reduction in LDL-C (Post-CABG trial, overall): 26%
reduction in total cholesterol (TC) (Post-CABG trial, overall): 15%
reduction in LDL-C [2]: 37%
reduction in total cholesterol (TC) [2]: 23%
Response in HDL-C and triglycerides (TG) (aggressive versus moderate treatment group): did not differ between the two treatment groups
Percent change in HDL-C (carriers of LPL haplotype 12-1, mean ± SD): 12.6 ± 24.3 (568) %
change in triglycerides (carriers of LPL haplotype 12-2): +2.6%
Percent change in HDL-C (carriers of LPL haplotype 12-2, mean ± SD): 12.4 ± 24.5 (295) %
Percent change in HDL-C (carriers of LPL haplotype 12-3, mean ± SD): 14.2 ± 23.5 (262) %
Percent change in HDL-C (carriers of LPL haplotype 12-5, mean ± SD): 11.4 ± 25.6 (61) %
Percent change in HDL-C (carriers of LPL haplotype 12-6, mean ± SD): 24.8 ± 19.8 (52) %
Percent change in HDL-C (carriers of LPL haplotype 12-7, mean ± SD): 21.9 ± 24.1 (44) %
Percent change in HDL-C (carriers of LPL haplotype 12-8, mean ± SD): 23.0 ± 26.0 (43) %
reduction in LDL-C [3]: 14%
reduction in total cholesterol (TC) [3]: 7%
Percent change in HDL-C (non-carriers of LPL haplotype 12-1, mean ± SD): 15.2 ± 24.2 (261) %
change in triglycerides (non-carriers of LPL haplotype 12-2): +11.8%
Percent change in HDL-C (non-carriers of LPL haplotype 12-2, mean ± SD): 14.0 ± 24.2 (534) %
Percent change in HDL-C (non-carriers of LPL haplotype 12-3, mean ± SD): 13.1 ± 24.7 (567) %
Percent change in HDL-C (non-carriers of LPL haplotype 12-5, mean ± SD): 13.6 ± 24.2 (768) %
Percent change in HDL-C (non-carriers of LPL haplotype 12-6, mean ± SD): 12.7 ± 24.4 (777) %
Percent change in HDL-C (non-carriers of LPL haplotype 12-7, mean ± SD): 13.0 ± 24.3 (785) %
Percent change in HDL-C (non-carriers of LPL haplotype 12-8, mean ± SD): 12.8 ± 24.4 (786) %
